Reference: paper PMC11045757, “Group 3 medulloblastoma transcriptional networks collapse under domain specific EP300/CBP inhibition” (Nature Communications, 2024)
Several values for one entry are separate records, joined by “and”; a condition that tells them apart may be missing. Identical values can stand only once.

Experiments:
BRD4-BD1 (BRD4-1) [1] = target: T1, BRD4-BD1 (BRD4-1) (Homo sapiens, UniProt O60885); experiment: Differential scanning fluorimetry (DSF) thermal shift; type: binding
T1 construct: BRD4-BD1 (residues 44-168); 6xHis (cleaved yes); host or cells: E. coli BL21 (DE3) RIL
Method in brief: (§1)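 Thermal shift of 5 μM E. coli-expressed bromodomain with 100 μM compound in 50 mM HEPES pH 7.5, 150 mM NaCl, 2 mM DTT, 2% DMSO, 5X SYPRO Orange, quadruplicate. Heated 25→95 °C at 1 °C/min, fluorescence at 610 nm; ΔTm relative to DMSO reference wells.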

EP300 bromodomain = target: T2, EP300 bromodomain (Homo sapiens, UniProt Q09472); experiment: as above; type: binding
T2 construct: 6xHis (cleaved yes); host or cells: E. coli BL21 (DE3) RIL
T2 sequence (Q09472 1048-1161): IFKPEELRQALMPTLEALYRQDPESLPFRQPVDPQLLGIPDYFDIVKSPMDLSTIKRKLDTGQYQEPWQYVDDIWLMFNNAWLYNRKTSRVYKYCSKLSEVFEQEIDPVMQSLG
Method in brief: as §1

BRD4-BD1 (BRD4-1) [2] = target: T1, BRD4-BD1 (BRD4-1); experiment: Isothermal titration calorimetry (ITC); type: binding; settings: single ITC experiment, data fit ± SEM
Experimental: At OD600 of 0.6, the culture was cooled down to 18 °C and induced with 0.1 mM IPTG. After 18 h growth, the culture was harvested by centrifugation at 6000 × g for 25 min and stored at -80 °C. Harvested cell pellets were re-suspended in 50 mM Na/K phosphate buffer (pH 7.4) containing 100 mM NaCl, 40 mM imidazole, 0.01% w/v lysozyme and 0.01% v/v Triton X-100 at 4 °C for 1 h, subjected to sonication and the lysate was clarified by centrifugation (30,000 × g for 45 min at 4 °C). Proteins were purified by FPLC at 4 °C using columns and chromatography materials from GE Healthcare. […] Proteins were purified to homogeneity by size exclusion chromatography using Superdex 75 equilibrated with elution buffer (50 mM HEPES pH 7.5, 100 mM NaCl, 2 mM DTT). All BRDs eluted as monomeric protein and were of crystallization grade quality (>95% purity as judged by SDS-PAGE). Pool fractions were combined, concentrated to 10–12 mg/ml, and aliquots were flash-frozen in liquid N2 and stored at −80 °C.
All experiments were conducted using an PEAQ-ITC calorimeter (Malvern Scientific). BRDs were buffer exchanged using PD10 columns (GE life sciences) into 50 mM HEPES pH7.5 and 100 mM NaCl (ITC buffer) before the experiment and concentrated to ∼10 mg/mL. Experiments were carried out in ITC buffer while stirring at 750 rpm through reverse titration. The microsyringe (40 μL load volume) was loaded with the protein sample (250–600 μM protein in ITC buffer) and inserted into the calorimetric cell (0.2 mL cell volume) consisting of compound (20–60 μM in ITC buffer). All titrations were conducted using an initial control injection of 0.2 μL followed by 13 identical injections (~3 μL per injection) with a duration of 2 s (per injection) and a spacing of 150 s between injections. The ratio of protein/compound was optimized to ensure complete saturation of the titrant before the final injection to ensure proper baseline determination. Data were corrected for dilution and analyzed using the MicroCal Origin software to determine the enthalpies of binding (ΔH) and binding constants as described. Thermodynamic parameters were calculated using the basic equation of thermodynamics (ΔG = ΔH − TΔS = −RTlnKB) where ΔG, ΔH and ΔS are the changes in free energy, enthalpy and entropy of binding, respectively. A single binding site model was used for all ligand-protein interactions.

ATAD2B = target: T3, ATAD2B (Homo sapiens, UniProt Q9ULI0); experiment: BromoScan profiling (DiscoverX); type: binding; settings: read-out: Percent Control ATAD2B
T3 construct: purchased Eurofins DiscoverX (BROMOscan)
T3 sequence (Q9ULI0 whole entry): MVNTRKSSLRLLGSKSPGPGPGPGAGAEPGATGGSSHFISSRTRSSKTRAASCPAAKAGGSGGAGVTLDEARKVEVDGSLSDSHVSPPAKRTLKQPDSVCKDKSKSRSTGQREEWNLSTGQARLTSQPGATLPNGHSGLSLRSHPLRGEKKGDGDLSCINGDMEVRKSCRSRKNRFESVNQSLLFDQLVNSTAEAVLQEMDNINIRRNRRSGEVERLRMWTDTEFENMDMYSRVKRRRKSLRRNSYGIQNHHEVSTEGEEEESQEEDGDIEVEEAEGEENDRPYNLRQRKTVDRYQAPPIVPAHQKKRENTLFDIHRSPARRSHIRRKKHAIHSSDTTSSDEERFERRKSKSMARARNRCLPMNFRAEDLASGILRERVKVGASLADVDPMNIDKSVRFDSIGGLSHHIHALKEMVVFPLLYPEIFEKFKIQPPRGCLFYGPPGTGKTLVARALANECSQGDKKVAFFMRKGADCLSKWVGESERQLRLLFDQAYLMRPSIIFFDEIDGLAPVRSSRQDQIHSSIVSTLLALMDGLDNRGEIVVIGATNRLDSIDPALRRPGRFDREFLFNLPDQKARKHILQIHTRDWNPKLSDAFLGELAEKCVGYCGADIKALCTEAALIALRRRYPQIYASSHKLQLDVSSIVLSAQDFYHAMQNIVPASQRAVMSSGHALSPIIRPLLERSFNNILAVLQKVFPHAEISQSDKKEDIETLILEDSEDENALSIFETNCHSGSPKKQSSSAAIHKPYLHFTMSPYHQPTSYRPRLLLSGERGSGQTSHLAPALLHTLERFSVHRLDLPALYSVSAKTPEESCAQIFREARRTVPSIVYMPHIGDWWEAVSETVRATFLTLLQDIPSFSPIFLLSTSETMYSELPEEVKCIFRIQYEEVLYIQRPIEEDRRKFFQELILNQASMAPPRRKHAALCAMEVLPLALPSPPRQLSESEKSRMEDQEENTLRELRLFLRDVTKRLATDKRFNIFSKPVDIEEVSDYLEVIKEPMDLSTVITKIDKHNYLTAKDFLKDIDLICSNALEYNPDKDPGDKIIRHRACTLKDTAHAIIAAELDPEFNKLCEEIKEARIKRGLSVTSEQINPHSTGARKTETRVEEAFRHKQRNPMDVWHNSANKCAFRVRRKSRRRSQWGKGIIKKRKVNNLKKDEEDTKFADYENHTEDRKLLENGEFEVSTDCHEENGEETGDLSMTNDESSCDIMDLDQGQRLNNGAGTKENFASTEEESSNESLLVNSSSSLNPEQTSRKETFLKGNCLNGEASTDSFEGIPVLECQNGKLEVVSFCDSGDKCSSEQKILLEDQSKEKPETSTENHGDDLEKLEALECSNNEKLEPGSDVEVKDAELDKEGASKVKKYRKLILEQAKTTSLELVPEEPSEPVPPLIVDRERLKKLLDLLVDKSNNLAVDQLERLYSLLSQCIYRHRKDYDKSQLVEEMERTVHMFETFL

BRD1 = target: T4, BRD1 (Homo sapiens, UniProt O95696); experiment: BromoScan profiling (DiscoverX); type: binding; settings: read-out: Percent Control BRD1
T4 construct: purchased Eurofins DiscoverX (BROMOscan)

BRD9 = target: T5, BRD9 (Homo sapiens, UniProt Q9H8M2); experiment: BromoScan profiling (DiscoverX); type: binding; settings: read-out: Percent Control BRD9
T5 construct: purchased Eurofins DiscoverX (BROMOscan)
T5 sequence (Q9H8M2 whole entry): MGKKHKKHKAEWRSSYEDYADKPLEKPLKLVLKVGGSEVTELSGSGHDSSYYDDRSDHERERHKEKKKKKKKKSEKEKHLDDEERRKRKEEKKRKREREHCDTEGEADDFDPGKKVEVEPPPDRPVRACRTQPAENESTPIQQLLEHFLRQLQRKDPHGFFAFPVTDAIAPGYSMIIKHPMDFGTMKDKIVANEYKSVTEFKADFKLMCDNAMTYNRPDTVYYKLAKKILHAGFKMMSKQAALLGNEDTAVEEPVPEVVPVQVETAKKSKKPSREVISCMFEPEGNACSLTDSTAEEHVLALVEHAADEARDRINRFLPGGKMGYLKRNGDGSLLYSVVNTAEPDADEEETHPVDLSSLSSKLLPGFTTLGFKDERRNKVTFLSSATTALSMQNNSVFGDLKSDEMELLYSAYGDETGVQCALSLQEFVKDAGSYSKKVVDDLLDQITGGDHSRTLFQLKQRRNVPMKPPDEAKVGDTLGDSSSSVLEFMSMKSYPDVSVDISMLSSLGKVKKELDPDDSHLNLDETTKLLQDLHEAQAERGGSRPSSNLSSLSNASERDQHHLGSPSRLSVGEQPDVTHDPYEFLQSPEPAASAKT

EP300 = target: T6, EP300 (Homo sapiens, UniProt Q09472); experiment: BromoScan profiling (DiscoverX); type: binding; settings: read-out: Percent Control EP300
T6 construct: purchased Eurofins DiscoverX (BROMOscan)
T6 sequence (Q09472 whole entry): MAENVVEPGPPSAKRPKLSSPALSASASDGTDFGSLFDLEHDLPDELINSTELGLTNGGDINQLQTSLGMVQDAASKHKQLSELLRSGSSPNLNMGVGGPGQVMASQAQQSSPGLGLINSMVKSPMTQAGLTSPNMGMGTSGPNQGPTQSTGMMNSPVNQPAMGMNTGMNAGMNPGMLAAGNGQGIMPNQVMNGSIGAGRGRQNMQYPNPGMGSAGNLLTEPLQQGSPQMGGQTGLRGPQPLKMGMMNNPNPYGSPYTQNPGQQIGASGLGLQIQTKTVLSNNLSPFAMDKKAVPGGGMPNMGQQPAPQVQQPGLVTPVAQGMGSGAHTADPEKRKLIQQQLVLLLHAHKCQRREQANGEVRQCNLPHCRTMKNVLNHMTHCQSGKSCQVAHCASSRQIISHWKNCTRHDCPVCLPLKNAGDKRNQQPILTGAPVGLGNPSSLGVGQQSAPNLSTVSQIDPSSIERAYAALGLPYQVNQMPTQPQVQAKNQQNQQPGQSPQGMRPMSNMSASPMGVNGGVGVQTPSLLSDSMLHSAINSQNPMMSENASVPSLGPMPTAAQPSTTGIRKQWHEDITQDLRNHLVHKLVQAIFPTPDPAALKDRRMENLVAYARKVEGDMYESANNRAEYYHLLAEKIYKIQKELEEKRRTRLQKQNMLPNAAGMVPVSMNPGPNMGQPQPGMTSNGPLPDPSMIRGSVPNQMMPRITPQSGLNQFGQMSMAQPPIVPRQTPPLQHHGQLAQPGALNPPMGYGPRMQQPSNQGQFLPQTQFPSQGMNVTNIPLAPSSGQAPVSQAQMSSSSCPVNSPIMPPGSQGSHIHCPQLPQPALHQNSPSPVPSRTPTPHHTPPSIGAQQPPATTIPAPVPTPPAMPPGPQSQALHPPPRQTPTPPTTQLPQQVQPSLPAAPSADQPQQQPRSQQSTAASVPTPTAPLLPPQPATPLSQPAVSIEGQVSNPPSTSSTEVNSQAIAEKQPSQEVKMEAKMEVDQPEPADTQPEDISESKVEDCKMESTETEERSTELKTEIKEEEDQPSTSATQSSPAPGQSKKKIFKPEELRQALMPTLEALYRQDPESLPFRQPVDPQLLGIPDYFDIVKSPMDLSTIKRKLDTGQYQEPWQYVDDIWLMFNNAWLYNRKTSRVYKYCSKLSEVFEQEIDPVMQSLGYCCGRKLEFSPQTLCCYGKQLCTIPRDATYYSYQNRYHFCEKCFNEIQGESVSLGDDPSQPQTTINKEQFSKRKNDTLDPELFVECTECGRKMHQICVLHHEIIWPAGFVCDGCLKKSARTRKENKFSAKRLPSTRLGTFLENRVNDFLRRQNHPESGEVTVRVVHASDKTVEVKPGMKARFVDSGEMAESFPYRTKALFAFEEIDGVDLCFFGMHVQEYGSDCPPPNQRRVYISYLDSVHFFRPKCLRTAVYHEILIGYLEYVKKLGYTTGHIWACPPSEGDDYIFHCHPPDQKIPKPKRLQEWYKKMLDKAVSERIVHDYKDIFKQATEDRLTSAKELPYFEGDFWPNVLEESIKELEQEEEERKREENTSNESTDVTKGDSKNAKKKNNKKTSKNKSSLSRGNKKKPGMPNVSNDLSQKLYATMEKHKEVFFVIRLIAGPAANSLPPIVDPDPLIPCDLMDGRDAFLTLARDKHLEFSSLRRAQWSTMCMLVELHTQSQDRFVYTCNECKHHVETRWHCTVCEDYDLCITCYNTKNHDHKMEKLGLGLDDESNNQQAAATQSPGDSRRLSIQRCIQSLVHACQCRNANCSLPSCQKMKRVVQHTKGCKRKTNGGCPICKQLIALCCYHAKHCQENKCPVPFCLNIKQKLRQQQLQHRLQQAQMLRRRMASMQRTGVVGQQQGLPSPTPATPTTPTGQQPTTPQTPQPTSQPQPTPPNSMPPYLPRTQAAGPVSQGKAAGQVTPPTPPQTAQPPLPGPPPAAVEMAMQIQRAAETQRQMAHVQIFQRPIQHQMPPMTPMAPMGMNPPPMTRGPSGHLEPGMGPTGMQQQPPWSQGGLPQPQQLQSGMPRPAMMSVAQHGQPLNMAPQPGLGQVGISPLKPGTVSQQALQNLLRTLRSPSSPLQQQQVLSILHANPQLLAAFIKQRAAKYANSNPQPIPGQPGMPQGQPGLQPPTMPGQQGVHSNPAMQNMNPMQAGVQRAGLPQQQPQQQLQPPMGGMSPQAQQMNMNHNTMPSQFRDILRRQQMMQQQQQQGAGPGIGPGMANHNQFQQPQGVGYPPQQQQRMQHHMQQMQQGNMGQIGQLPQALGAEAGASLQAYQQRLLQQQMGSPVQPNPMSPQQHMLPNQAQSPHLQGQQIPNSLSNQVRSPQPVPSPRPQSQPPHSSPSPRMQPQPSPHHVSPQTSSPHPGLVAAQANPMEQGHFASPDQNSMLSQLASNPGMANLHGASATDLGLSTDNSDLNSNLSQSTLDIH

PBRM1(5) = target: T7, PBRM1(5) (Homo sapiens, UniProt Q86U86); experiment: BromoScan profiling (DiscoverX); type: binding; settings: read-out: Percent Control PBRM1(5)
T7 construct: PBRM1(5); purchased Eurofins DiscoverX (BROMOscan)
T7 sequence (Q86U86 645-766 limits assumed): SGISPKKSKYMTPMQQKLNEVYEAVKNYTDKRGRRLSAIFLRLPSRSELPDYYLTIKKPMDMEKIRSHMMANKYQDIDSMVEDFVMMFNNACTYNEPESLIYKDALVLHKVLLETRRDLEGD

TAF1L(2) = target: T8, TAF1L(2) (Homo sapiens, UniProt Q8IZX4); experiment: BromoScan profiling (DiscoverX); type: binding; settings: read-out: Percent Control TAF1L(2)
T8 construct: TAF1L(2); purchased Eurofins DiscoverX (BROMOscan)
T8 sequence (Q8IZX4 1517-1654 limits assumed): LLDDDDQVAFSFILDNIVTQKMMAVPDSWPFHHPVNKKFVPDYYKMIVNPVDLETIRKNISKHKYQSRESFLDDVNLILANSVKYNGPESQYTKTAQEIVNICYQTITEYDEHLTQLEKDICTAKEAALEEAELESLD

TRIM33(PHD,Bromo.) = experiment: BromoScan profiling (DiscoverX); type: binding, human; settings: 1 µM
[3] = DSF, 5 μM protein, 100 μM compound, three independent experiments, average ± SD

ΔTm (°C) (BRD4-BD1 (BRD4-1) [1]; DSF thermal shift vs DMSO, BRD4-BD1, Fig 2B): 6.7 °C
∆Tm (°C) BRD4-1 (BRD4-BD1 (BRD4-1) [1]; [3]): 6.7 ± 0.16 °C and 6.7 °C
ΔTm (°C) (EP300 bromodomain; DSF thermal shift vs DMSO, EP300 bromodomain, Fig 2B): 18.3 °C
∆Tm (°C) EP300 (EP300 bromodomain; [3]): 18.3 ± 0.2 °C
ΔTm (°C) EP300 (EP300 bromodomain; Figure 3B, DSF, EP300): 18.3 °C
Kd (BRD4-BD1 (BRD4-1) [2]): 403 ± 137 nM
remaining binding at 1 µM (ATAD2B): 79%
remaining binding at 1 µM (BRD1): 88%
remaining binding at 1 µM (BRD9): 39%
remaining binding at 1 µM (EP300): 1.6%
remaining binding at 1 µM (PBRM1(5)): 71%
remaining binding at 1 µM (TAF1L(2)): 80%
Compound: CO[C@H]1CC[C@H](n2c([C@@H]3CCCC(=O)N3c3ccc(F)c(F)c3)nc3cc(-c4c(C)noc4C)ccc32)CC1 [CCS1477]
Percent Control TRIM33(PHD,Bromo.) (TRIM33(PHD,Bromo.)): 90
